# According to publication PMC8773338, “Discovery Potent of Thiazolidinedione Derivatives as Antioxidant, α-Amylase Inhibitor, and Antidiabetic Agent” (Biomedicines, 2021):
# What was measured:
# [1] = system: alloxan-induced diabetic rat model; test: serum lipid profile in alloxan-induced diabetic rats; format: in vivo; conditions: for LDL value: versus normal value; for CH level: versus normal animals; for serum CH level decrease: compared to the diabetic control group
# Procedure: The blood samples (0.5 mL) were withdrawn from the retro-orbital plexus of each rat and the other steps adapted for measuring the biochemical analysis are shown in (Supplementary Materials).
# A serious side effect related to diabetes is Hyperlipidemia. Insulin deficiency promotes the adipocytes to generate a fatty acid, hepatic phospholipids and cholesterol. Thus, we measured the levels of (cholesterol “CH”, triglyceride “TG”, high, low and very-low- and high/low and very low density lipoproteins “HDL, LDL and VLDL”) in serum for alloxan-loaded diabetes. […] The serum CH. Level decreased by 40%, 32%, 40%, 48%, 52%, and 43% for 3–6, 9, and 11, respectively, compared to the diabetic control group (Figure 7).
# Figure 7 The level of Ch (cholesterol), TG (triglyceride), HDL (high density lipoprotein), LDL (low density lipoprotein) and VLDL (very low density lipoprotein) in serum of hyperglycemic loaded rats. […] Data analyzed by one way ANOVA followed by LSD test and expressed as mean ± SEM from five observations.
# 2007) dissolved in normal saline (Bodade et al., 2013). The animals were allowed to drink 5% glucose solution overnight to overcome the drug induced hypoglycemia (Gandhi and Sasikumar, 2012; Pareek etal., 2009). Blood samples were taken 48 h after injection of alloxan to ensure that diabetes has been induced (Vijayan et al., 2013), and fasting plasma glucose level of rats was determined using glucose strips. Rats with plasma glucose concentration N 300 mg/dl (Gadadare et al., 2015) were considered diabetic and included in […]
# The blood samples (0.5 ml) were withdrawn from the retro-orbital plexus of each rat under mild anesthesia using a glass capillary tube after fasting for 6 h. Blood samples were centrifuged at 3000 rpm for 15 min. The serum was kept at −80 °C until analyzed. Speciﬁc reagent kits were used to determine levels of serum triglyceride (TG), serum cholesterol (CH), serum low density lipoproteins (LDL), serum high density lipoproteins (HDL) for assessing the lipid proﬁle.
# (§1) Data are expressed as mean ± S.E. Data analysis was done using one way analysis of variance (ANOVA) followed by least significant difference (LSD) test for multiple comparisons. Difference was considered significant when p is less than 0.05. SPSS (version 11) program was used to carry out these statistical tests.
# [2] = system: alloxan-induced diabetic rat model; conditions: Wistar (albino), in vivo, 30 days
# Source text: This study used an alloxan-induced diabetic rat model to test the anti-hyperglycemic action of substances (3–6, 9, 11). […] The BGL was monitored for each tested compound at three different doses (50, 100, and 250 μ/Kg) and for five experimental period durations (0, 2, 4, 15, 30 days).
# At 50 μ/Kg, we observed no mortality during any of the experiment periods for all tested compounds.
# Data analyzed by one way ANOVA followed by LSD test and expressed as mean ± SEM from five observations. TEXT PRINTED IN THE PICTURE: 3: Mortilaty: 20% (250 (m/Kg)); Mortilaty: 10% (100 (m/Kg)); Mortilaty: 0% (50 (m/Kg)) | 4: Mortilaty: 20% (250 (m/Kg)); Mortilaty: 10% (100 (m/Kg)); Mortilaty: 0% (50 (m/Kg)) | 5: Mortilaty: 30% (250 (m/Kg)); Mortilaty: 20% (100 (m/Kg)); Mortilaty: 0% (50 (m/Kg)) | 6: Mortilaty: 20% (250 (m/Kg)); Mortilaty: 10% (100 (m/Kg)); Mortilaty: 0% (50 (m/Kg)) | 9: Mortilaty: 20% (250 (m/Kg)); Mortilaty: 10% (100 (m/Kg)); Mortilaty: 0% (50 (m/Kg)) | 11: Mortilaty: 20% (250 (m/Kg)); Mortilaty: 10% (100 (m/Kg)); Mortilaty: 0% (50 (m/Kg)) DOUBTS OF THE COPYIST ABOUT THIS PICTURE: The control groups NO. (labels 0%, 0%, 0%, overlapping) and DC (labels 50%, 50% and a third that reads 50% or 60%, partly hidden) are not compounds and were left out. / 3, 4, 5, 6, 9, 11, Mortilaty at 50 (m/Kg): the 0% labels are partly overlapped by neighbouring bars and labels; 0% is the best reading. / Which label belongs to which dose series was judged from its position over the bars; several labels overlap.
# [3] = molecular target: T1, α-amylase (Homo sapiens, UniProt P04746); test: in vitro inhibition of α-amylase assay; format: biochemical; conditions: six concentrations 5-40 µg/mL, non-linear regression
# T1 sequence (P04746 16-511): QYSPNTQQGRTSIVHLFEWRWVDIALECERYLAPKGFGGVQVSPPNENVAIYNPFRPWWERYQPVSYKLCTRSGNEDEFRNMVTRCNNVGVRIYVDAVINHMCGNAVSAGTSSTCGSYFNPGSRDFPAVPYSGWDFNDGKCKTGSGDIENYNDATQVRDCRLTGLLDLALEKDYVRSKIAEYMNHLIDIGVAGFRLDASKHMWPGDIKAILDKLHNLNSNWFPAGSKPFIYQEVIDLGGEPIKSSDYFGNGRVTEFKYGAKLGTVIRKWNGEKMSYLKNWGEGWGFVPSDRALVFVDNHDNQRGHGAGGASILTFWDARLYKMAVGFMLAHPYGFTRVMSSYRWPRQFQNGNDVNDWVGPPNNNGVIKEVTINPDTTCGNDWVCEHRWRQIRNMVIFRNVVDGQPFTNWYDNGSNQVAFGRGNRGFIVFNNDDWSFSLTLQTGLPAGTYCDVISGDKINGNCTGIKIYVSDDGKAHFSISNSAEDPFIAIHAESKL
# Source text: The α-amylase activity of the probe compounds determined using a method.
# This study examined the inhibitory potential for the (3–6, 9, and 11) compounds against α-amylase enzyme. We applied six different concentrations (5,10,15,20,30, and 40) µg/mL for this test. These concentrations were plotted via the inhibition percentage to determine the IC50 (the concentration required to inhibit 50% of the enzyme) using the non-linear regression method.
# - inhibition in-vitro of α-Amylase assay:
# The α-amylase activity of the compounds were determined using a method in which 250 μL of each compound, or Metformin .HCl, dissolved in ethanol to obtain different concentrations (5, 10, 15, 20,30 and 40 μg/mL ), was mixed with 500 μL of α-amylase (2 U/mL ) in phosphate buffer (100 mM, pH 6.8) and incubated at 37 °C for 10 min. Thereafter, 50 μL of 1% starch, dissolved in the same buffer, was added to the mixture and the samples were incubated again at 37 °C. After 30 min, dinitrosalicylic acid (DNS) colour reagent (1 mL) was added. The (DNS) was prepared by adding 437mg of 3,5- dinitro salicylic acid in 20 mL distilled water to12 g of sodium potassium tartrate in 8 mL of 2 M NaOH, then added distilled water until the solution reach to 40 mL ). the samples were boiled for 10 min in water bath. For non-enzymatic reactions, the assays were performed with a blank containing all of the components except the enzyme. Each concentration was analyzed in three independent experiments run in triplicate.
# The percent of inhibition Absorbance was then measured at 540 nm. The percent of inhibition of α-amylase was calculated as following by the formula below:
# %inhibition= ((absorbance of blank_absorbance of compound)/absorbance of blank) *100. […]
# [4] = system: alloxan-induced diabetic rat model; test: blood glucose level in alloxan-induced diabetic rat model; format: in vivo; conditions: for reduction percentage of blood glucose level: 30-day treatment protocol, compared with the normal control
# Procedure: Healthy male albino Wistar rats (150 ± 20 g) have been obtained as mentioned in Supplementary Materials.
# The animals were kept fasting overnight (12 h) before induction of diabetes, which was induced in rats as reported and mentioned in Supplementary Materials.
# We obtained the blood samples from the tail vein of all rats, the blood-glucose-level “BGLs” were measured and monitored in all treatment groups at days 0 (basal), 2th, 4th, 15th, and 30th as reported.
# This study used an alloxan-induced diabetic rat model to test the anti-hyperglycemic action of substances (3–6, 9, 11). […] The BGL was monitored for each tested compound at three different doses (50, 100, and 250 μ/Kg) and for five experimental period durations (0, 2, 4, 15, 30 days). […]
# The animals were kept fasting overnight (12 h) before induction of diabetes. […]
# as §1
# [5] = DPPH radical scavenging activity; conditions: concentrations 0.16-1000 µg/mL
# Procedure: The assay of 2,2-Diphenyl-1-picrylhydrazyl radical (DPPH) was performed according to the method at.
# We examined the antioxidant activity of the (3–6, 9, and 11) hybrids using the stable DPPH assay. The antioxidant result was represented as IC50 (the concentration is essential for 50% reduction in the power of H-donation or radical scavenging). […] The increasing scavenging activity may be due to the stabilization of the lone pair in the conjugated system through the presence of the terminal carbonyl and thiazolidinone groups.
# [6] = 100 μ/Kg, in comparison with DC, 4th and 15th time durations
# [7] = 250 μ/Kg, 15th and 30th treatments
# [8] = 250 μ/Kg, 30th time duration of treatment
SMILES,LDL value ([1]; 2nd and 15th days),VLDL ([1]; 2nd to 15th days),VLDL level ([1]; 30th day),"CH level ([1]; 30th day, 50 μ/Kg)",LDL value ([1]; 30th day),serum CH level decrease ([1]; 50 μ/Kg) [%],Mortilaty [2] [%],IC50 [3] [µM],"BGL ([4]; 50 μ/Kg, 4th, 15th and 30th)","BGL [4, 6]","VLDL level of serum ([1]; all experimental periods, compared to the normal rats)","BGL [4, 7]","VLDL level ([1]; 4th, 15th and 30th days)",reduction percentage of blood glucose level [4] [%],"glucose level [4, 8]","TG level ([1]; 30th day, versus normal level, 50 μ/Kg)",IC50 DPPH radical scavenging [5] [µg/mL],"BGL ([4]; 50 μ/Kg, p < 0.05, all experiment periods compared to DC group)","glucose level ([4]; 100 μ/Kg, in comparison with DC, 4th, 15th and 30th time durations)",VLDL ([1]; 4th and 30th day)
O=C1NC(=O)/C(=C\c2ccc3c(c2)OCO3)S1 [Compound 3],can regulate the LDL value to the normal value,failed to reach to control value for VLDL,almost reached to the normal VLDL level,lower CH level than the normal animals,failed to do so,40,0,173,–,–,–,–,–,–,–,–,–,–,–,–
O=C(CCl)N1C(=O)S/C(=C/c2ccc3c(c2)OCO3)C1=O [Compound 4],–,–,–,–,–,32,0,163,moderate reduction in BGL,moderate decreases in BGL,below the normal value,–,–,–,–,–,–,–,–,–
"CC(=O)CN1C(=O)SC(=Cc2ccc3c(c2)OCO3)C1=O [Compound 5, 5-(benzo[d][1,3]dioxol-5-ylmethylene)-3-(2-oxopropyl) thiazolidine-2,4-dione]",–,–,–,lower CH level than the normal animals,–,40,0,59,–,–,–,promising decreases in BGL,regulated the VLDL level to the normal level,–,–,–,–,–,–,–
"O=C(O)CN1C(=O)SC(=Cc2ccc3c(c2)OCO3)C1=O [Compound 6, 2-(5-(benzo[d][1,3]dioxol-5-ylmethylene)-2,4-dioxothiazolidin-3-yl)acetic acid]",–,–,–,lower CH level than the normal animals,–,48,0,33.4,moderate reduction in BGL,moderate decreases in BGL,–,–,regulated the VLDL level to the normal level,69.55,significant reduction in glucose level,decreased to the normal level,10.78,–,–,–
"Cc1nnc(NC(=S)SCC(=O)N2C(=O)S/C(=C/c3ccc4c(c3)OCO4)C2=O)s1 [Compound 9, 2-(5-(Benzo[d][1,3]dioxol-5-ylmethylene)-2,4-dioxothiazolidin-3-yl)-2-oxoethyl (5-Methyl-1,3,4-thiadiazol-2-yl) Carbamodithioate]",–,–,–,lower CH level than the normal animals,–,52,–,–,moderate reduction in BGL,moderate decreases in BGL,–,–,regulated the VLDL level to the normal level,–,–,–,–,–,–,–
"O=C1CSC(=O)N1CC(=O)N1C(=O)SC(=Cc2ccc3c(c2)OCO3)C1=O [Compound 11, 5-(Benzo[d][1,3]dioxol-5-ylmethylene)-3-(2-(2,4-dioxothiazolidin-3-yl)acetyl) Thiazolidine-2,4-dione]",–,–,–,lower CH level than the normal animals,–,43,–,49.2,–,–,–,promising decreases in BGL,–,66.95,significant reduction in glucose level,–,11.16,promising reduction in BGL,significant reduction in glucose level,regulated only the VLDL of infected rats to normal values
